Data on six molecules can be found in article PMC9536471 (Biochemistry, 2022).

Several values for one entry are separate records, joined by “and”; a condition that tells them apart may be missing. Identical values can stand only once. Like-named read-outs stand apart in the source and are kept apart here.

For data set [1], the target named is T1, TcC (Trypanosoma cruzi, UniProt Q4DGA3).
T1 sequence (Q4DGA3 1-221): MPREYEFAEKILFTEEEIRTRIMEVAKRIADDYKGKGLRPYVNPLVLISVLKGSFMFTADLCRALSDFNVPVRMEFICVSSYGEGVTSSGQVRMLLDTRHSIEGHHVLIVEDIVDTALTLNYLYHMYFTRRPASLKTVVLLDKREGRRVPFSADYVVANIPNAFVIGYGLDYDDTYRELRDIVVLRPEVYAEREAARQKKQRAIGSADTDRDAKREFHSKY
Briefly: Isothermal titration calorimetry. The class given is binding. In general terms: In ITC the heat of successive injections is recorded.

The target of data set [2] is T2, TcA (Trypanosoma cruzi, UniProt Q4DRC4).
T2 sequence (Q4DRC4 1-241): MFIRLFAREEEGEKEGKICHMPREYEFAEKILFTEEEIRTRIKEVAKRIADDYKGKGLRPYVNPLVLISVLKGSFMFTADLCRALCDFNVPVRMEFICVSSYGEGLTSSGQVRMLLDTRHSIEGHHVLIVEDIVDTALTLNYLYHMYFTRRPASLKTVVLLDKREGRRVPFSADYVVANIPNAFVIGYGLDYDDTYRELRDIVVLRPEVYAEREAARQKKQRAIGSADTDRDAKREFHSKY
As to conditions: cited from earlier work.

In data set [3] the target is T1, TcC. The data set can be described thus: Product inhibition studies of TcC. The data set is classed as biochemical.
For data set [4], the target named is T3, T. cruzi HGPRT (Trypanosoma cruzi, UniProt Q4DGA3).
T3 sequence (Q4DGA3 1-221): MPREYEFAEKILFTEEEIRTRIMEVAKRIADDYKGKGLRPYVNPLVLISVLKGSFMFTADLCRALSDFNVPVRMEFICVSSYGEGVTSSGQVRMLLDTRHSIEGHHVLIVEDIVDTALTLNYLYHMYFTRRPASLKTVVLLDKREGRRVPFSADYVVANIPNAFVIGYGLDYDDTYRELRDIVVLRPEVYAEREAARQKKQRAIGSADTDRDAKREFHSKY
Briefly: Screening of T. cruzi HGPRT inhibitors. The class given is biochemical.

Data set [5] has as its system T. cruzi HGPRT. The data set can be described thus: Screening of T. cruzi HGPRT inhibitors. Conditions: selectivity index: Ki of HsHGPRT divided by appKi of T. cruzi HGPRT. The data set is classed as biochemical, Trypanosoma cruzi.
In data set [6] the target is T4, HsHGPRT (Homo sapiens, UniProt P00492).
T4 sequence (P00492 1-218): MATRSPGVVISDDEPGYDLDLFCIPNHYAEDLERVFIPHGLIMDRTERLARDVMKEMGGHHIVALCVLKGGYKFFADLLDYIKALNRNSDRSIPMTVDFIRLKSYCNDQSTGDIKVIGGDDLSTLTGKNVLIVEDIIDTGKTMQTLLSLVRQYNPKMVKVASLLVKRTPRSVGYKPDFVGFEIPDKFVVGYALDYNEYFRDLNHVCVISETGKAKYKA
The data set can be described thus: Inhibition analysis of HsHGPRT, IMPDH-coupled assay. The data set is classed as biochemical.

For data set [7], the target named is T5, PfHGXPRT (Plasmodium falciparum, UniProt P20035).
T5 sequence (P20035 1-231): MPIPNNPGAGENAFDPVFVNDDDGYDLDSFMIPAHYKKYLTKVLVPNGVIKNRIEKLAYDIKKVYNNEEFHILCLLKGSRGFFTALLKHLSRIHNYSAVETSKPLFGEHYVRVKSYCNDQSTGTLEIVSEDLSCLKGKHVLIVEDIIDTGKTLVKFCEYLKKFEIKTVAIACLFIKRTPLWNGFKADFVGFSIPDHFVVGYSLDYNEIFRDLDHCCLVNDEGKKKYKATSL
The data set can be described thus: Inhibition analysis of PfHGXPRT, IMPDH-coupled assay. The class given is biochemical.

Substrate in data set [8]: O=c1[nH]cnc2nc[nH]c12
The data set can be described thus: purified protein, by the assay type. As to conditions: other: biosynthetic reaction, pH 8.3.

Substrate in data set [9]: Nc1nc2nc[nH]c2c(=O)[nH]1
The data set can be described thus: Steady-state kinetics of TcC, biosynthetic. Conditions: other: biosynthetic reaction, pH 8.3. The class given is biochemical, Trypanosoma cruzi.

Substrate in data set [10]: Oc1ncnc2[nH]ncc12
The data set can be described thus: Steady-state kinetics of TcC, biosynthetic. The data set is classed as biochemical, Trypanosoma cruzi. Conditions: other: biosynthetic reaction, pH 8.3.

Substrate in data set [11]: Nc1nc2nc[nH]c2c(=O)[nH]1
The data set can be described thus: Steady-state kinetics of TcA, biosynthetic. The data set is classed as biochemical, Trypanosoma cruzi. Conditions: other: biosynthetic reaction, pH 8.3.

[12] abbreviates: GMP biosynthesis, variable PRPP (20–215 μM), fixed Gua (70 μM).
[13] abbreviates: IMP biosynthesis, variable PRPP (20–215 μM), fixed Hx (60 μM).
The mark [14] stands for this setting: HPP-MP biosynthesis, fixed PRPP (1 mM), Lineweaver–Burk plots.

In the case of `O=c1[nH]cnc2nc[nH]c12` [Hx, hypoxanthine], in data set [1] (ligand concentrations 500- and 900-fold higher than Km), the “binding to free TcC enzyme” value is reported as “could not be detected”.
Regarding `O=P(O)(O)OC[C@H]1O[C@H](OP(=O)(O)OP(=O)(O)O)[C@H](O)[C@@H]1O` [PRPP, 5-phospho-α-D-ribose 1-diphosphate], in data set [2] (setting [12]), the Michaelis constant (Km) (in general, the substrate concentration at which the rate is half of its maximum) was 32 ± 5 µM and the kcat is recorded as 32 ^b s^–1. Moreover, in [2] (setting [13]), the Km was 31 ± 5 µM and the kcat was 23 ^b s^–1. In addition, the Kd – broadly, the concentration at which binding is half-saturated – in data set [1] stood at 142 ± 1 µM. In [1] (apo TcC, 25 °C, pH 8.0), the “ΔG°” value is given as “–5247 ± 5 cal mol^–1”, the “ΔH°” value stood at 5160 ± 450 cal mol^–1 and the “–TΔS°” value is “–10,410 ± 450 cal mol^–1”. The molecule further displayed a Ka in data set [1] (association constant, apo TcC, 25 °C, pH 8.0) of 7070 ± 60 M^–1. In data set [1] (number of binding sites per monomer, apo TcC, 25 °C, pH 8.0), this molecule gave an N of 1.2 ± 0.2. Besides, the affinity in [3], expressed as Ki, was 800 ± 100 nM.
Regarding `Oc1ncnc2[nH]ncc12` [HPP, 4-hydroxypyrazolo(3,4-d)pyrimidine, reference compound], in data set [2] (setting [14]), the Km was 710 ± 130 µM and the kcat is reported as 0.34 ± 0.03 ^c^, ^d s^–1.
`CN(Cc1c[nH]c2c(=O)[nH]cnc12)[C@H](CO)CCP(=O)(O)O.N.N` [Compound 4]: the values for the Ki in data set [4], in data set [6] and in [7] were 1440 ± 30 nM, 4.6 ± 0.07 µM and 108 ± 30 nM, respectively. Further, the SI in [5] is on record as 3.2.

B1: TcC (Trypanosoma cruzi strain CL Brener) (protein)
chain: MPREYEFAEKILFTEEEIRTRIMEVAKRIADDYKGKGLRPYVNPLVLISVLKGSFMFTADLCRALSDFNVPVRMEFICVSSYGEGVTSSGQVRMLLDTRHSIEGHHVLIVEDIVDTALTLNYLYHMYFTRRPASLKTVVLLDKREGRRVPFSADYVVANIPNAFVIGYGLDYDDTYRELRDIVVLRPEVYAEREAARQKKQRAIGSADTDRDAKREFHSKY
As to B1, the kcat/Km is 1 × 10^5 M^–1 s^–1 and 2.1 × 10^6 M^–1 s^–1 in data set [8] (TcC); 1 × 10^5 M^–1 s^–1 and 2.5 × 10^6 M^–1 s^–1 in data set [9]; 10^3 M^–1 s^–1 in data set [10].

B2: TcA (Trypanosoma cruzi strain CL Brener) (protein)
chain: MFIRLFAREEEGEKEGKICHMPREYEFAEKILFTEEEIRTRIKEVAKRIADDYKGKGLRPYVNPLVLISVLKGSFMFTADLCRALCDFNVPVRMEFICVSSYGEGLTSSGQVRMLLDTRHSIEGHHVLIVEDIVDTALTLNYLYHMYFTRRPASLKTVVLLDKREGRRVPFSADYVVANIPNAFVIGYGLDYDDTYRELRDIVVLRPEVYAEREAARQKKQRAIGSADTDRDAKREFHSKY
Regarding B2, the kcat/Km was 1 × 10^5 M^–1 s^–1 in [8] (TcA); 1 × 10^5 M^–1 s^–1 and 2.5 × 10^6 M^–1 s^–1 in data set [11].
